# According to ChEMBL document CHEMBL3885861, “Open TG-GATES”:
# Species on record: Rattus norvegicus
# Experiment: Open TG-GATES - Regimen: Single
# Type: toxicity, organism-based, Sprague-Dawley
# Design: regimen Single, gender Male, age 6 weeks
# Conditions: in vivo, po, route gavage; for Bas / Eos / Fbg / Hb / Ht / Lym / MCH / MCHC / MCV / Mono / Neu / PT / Plat / RBC / Ret / WBC: tissue Blood; for KIDNEY_L / KIDNEY_R / KIDNEY_TOTAL: tissue Kidney; for LIVER: tissue Liver; for ALP / ALT / AST / BUN / CRE / Ca / Cl / DBIL / GLC / IP / K / LDH / Na / PL / RALB / TBIL / TC / TG / TP / gamma-GTP: tissue Plasma
# [1] = 0 mg/kg, 3 h, dose level Control
# [2] = 0 mg/kg, 6 h, dose level Control
# [3] = 0 mg/kg, 9 h, dose level Control
# [4] = 0 mg/kg, 24 h, dose level Control
compound,measurement,setting,value
CN(C)CCCN1c2ccccc2Sc2ccc(Cl)cc21 [CHLORPROMAZINE],TERMINAL_BW,[1],223.8 g
same,Bas,[1],0%
same,Eos,[1],1.2%
same,Fbg,[1],223.6 mg/dL
same,Hb,[1],13.7 g/dL
same,Ht,[1],39.3%
same,Lym,[1],76%
same,MCH,[1],21.8 pg
same,MCHC,[1],34.7%
same,MCV,[1],62.7 fL
same,Mono,[1],2.6%
same,Neu,[1],18.8%
same,PT,[1],12.5 s
same,Plat,[1],116.1 x10_4/uL
same,RBC,[1],627.6 x10_4/ul
same,Ret,[1],7.6%
same,WBC,[1],91.8 x10_2/uL
same,KIDNEY_L,[1],1 g
same,KIDNEY_R,[1],1 g
same,KIDNEY_TOTAL,[1],2 g
same,LIVER,[1],10 g
same,ALP,[1],1021.8 IU/L
same,ALT,[1],37.6 IU/L
same,AST,[1],78.8 IU/L
same,BUN,[1],12.2 mg/dL
same,CRE,[1],0.4 mg/dL
same,Ca,[1],10.8 mg/dL
same,Cl,[1],103.2 meq/L
same,DBIL,[1],0.064 mg/dL
same,GLC,[1],190 mg/dL
same,IP,[1],8.5 mg/dL
same,K,[1],4 meq/L
same,LDH,[1],227.2 IU/L
same,Na,[1],141.6 meq/L
same,PL,[1],131.8 mg/dL
same,RALB,[1],3.5 g/dL
same,TBIL,[1],0.1 mg/dL
same,TC,[1],67.6 mg/dL
same,TG,[1],62.6 mg/dL
same,TP,[1],5.5 g/dL
same,gamma-GTP,[1],1 IU/L
same,TERMINAL_BW,[2],217.9 g
same,Bas,[2],0%
same,Eos,[2],1%
same,Fbg,[2],227.4 mg/dL
same,Hb,[2],13.4 g/dL
same,Ht,[2],38.8%
same,Lym,[2],77.2%
same,MCH,[2],21.1 pg
same,MCHC,[2],34.5%
same,MCV,[2],61.2 fL
same,Mono,[2],2.8%
same,Neu,[2],17.4%
same,PT,[2],12.5 s
same,Plat,[2],113.2 x10_4/uL
same,RBC,[2],634 x10_4/ul
same,Ret,[2],7.6%
same,WBC,[2],104.6 x10_2/uL
same,KIDNEY_L,[2],1 g
same,KIDNEY_R,[2],1 g
same,KIDNEY_TOTAL,[2],1.9 g
same,LIVER,[2],9.2 g
same,ALP,[2],816 IU/L
same,ALT,[2],33.6 IU/L
same,AST,[2],79.8 IU/L
same,BUN,[2],9 mg/dL
same,CRE,[2],0.4 mg/dL
same,Ca,[2],10.7 mg/dL
same,Cl,[2],103.4 meq/L
same,DBIL,[2],0.066 mg/dL
same,GLC,[2],190 mg/dL
same,IP,[2],9.4 mg/dL
same,K,[2],3.9 meq/L
same,LDH,[2],221.2 IU/L
same,Na,[2],141.8 meq/L
same,PL,[2],133.6 mg/dL
same,RALB,[2],3.4 g/dL
same,TBIL,[2],0.1 mg/dL
same,TC,[2],75.8 mg/dL
same,TG,[2],56.2 mg/dL
same,TP,[2],5.4 g/dL
same,gamma-GTP,[2],0.8 IU/L
same,TERMINAL_BW,[3],219.8 g
same,Bas,[3],0.4%
same,Eos,[3],0.6%
same,Fbg,[3],227 mg/dL
same,Hb,[3],13.2 g/dL
same,Ht,[3],38.2%
same,Lym,[3],78.8%
same,MCH,[3],21.7 pg
same,MCHC,[3],34.5%
same,MCV,[3],63 fL
same,Mono,[3],2.6%
same,Neu,[3],16.6%
same,PT,[3],12.6 s
same,Plat,[3],122.8 x10_4/uL
same,RBC,[3],606.2 x10_4/ul
same,Ret,[3],8.3%
same,WBC,[3],82.3 x10_2/uL
same,KIDNEY_L,[3],1 g
same,KIDNEY_R,[3],1 g
same,KIDNEY_TOTAL,[3],2 g
same,LIVER,[3],9 g
same,ALP,[3],922.2 IU/L
same,ALT,[3],30.6 IU/L
same,AST,[3],68 IU/L
same,BUN,[3],11.4 mg/dL
same,CRE,[3],0.4 mg/dL
same,Ca,[3],10.7 mg/dL
same,Cl,[3],104 meq/L
same,DBIL,[3],0.066 mg/dL
same,GLC,[3],203.4 mg/dL
same,IP,[3],10.2 mg/dL
same,K,[3],3.8 meq/L
same,LDH,[3],180.2 IU/L
same,Na,[3],141.8 meq/L
same,PL,[3],132.6 mg/dL
same,RALB,[3],3.3 g/dL
same,TBIL,[3],0.1 mg/dL
same,TC,[3],69.8 mg/dL
same,TG,[3],59.2 mg/dL
same,TP,[3],5.4 g/dL
same,gamma-GTP,[3],1 IU/L
same,TERMINAL_BW,[4],233.7 g
same,Bas,[4],0.8%
same,Eos,[4],1.2%
same,Fbg,[4],230.4 mg/dL
same,Hb,[4],13 g/dL
same,Ht,[4],38.5%
same,Lym,[4],79%
same,MCH,[4],21.2 pg
same,MCHC,[4],33.8%
same,MCV,[4],62.8 fL
same,Mono,[4],3%
same,Neu,[4],15.8%
same,PT,[4],11.7 s
same,Plat,[4],133.9 x10_4/uL
same,RBC,[4],613.8 x10_4/ul
same,Ret,[4],7.4%
same,WBC,[4],115.9 x10_2/uL
same,KIDNEY_L,[4],1 g
same,KIDNEY_R,[4],1 g
same,KIDNEY_TOTAL,[4],2 g
same,LIVER,[4],10.7 g
same,ALP,[4],1074.4 IU/L
same,ALT,[4],34.8 IU/L
same,AST,[4],73.8 IU/L
same,BUN,[4],16 mg/dL
same,CRE,[4],0.5 mg/dL
same,Ca,[4],10.8 mg/dL
same,Cl,[4],103.8 meq/L
same,DBIL,[4],0.058 mg/dL
same,GLC,[4],203 mg/dL
same,IP,[4],7 mg/dL
same,K,[4],4 meq/L
same,LDH,[4],192.2 IU/L
same,Na,[4],141.2 meq/L
same,PL,[4],140 mg/dL
same,RALB,[4],3.4 g/dL
same,TBIL,[4],0.1 mg/dL
same,TC,[4],78.6 mg/dL
same,TG,[4],80.2 mg/dL
same,TP,[4],5.6 g/dL
same,gamma-GTP,[4],1 IU/L
same,TERMINAL_BW,"45 mg/kg, 3 h, dose level Low",220 g
same,Bas,"45 mg/kg, 3 h, dose level Low",0%
same,Eos,"45 mg/kg, 3 h, dose level Low",1%
same,Fbg,"45 mg/kg, 3 h, dose level Low",221.8 mg/dL
same,Hb,"45 mg/kg, 3 h, dose level Low",12.5 g/dL
same,Ht,"45 mg/kg, 3 h, dose level Low",36.7%
same,Lym,"45 mg/kg, 3 h, dose level Low",79.4%
same,MCH,"45 mg/kg, 3 h, dose level Low",21 pg
same,MCHC,"45 mg/kg, 3 h, dose level Low",33.9%
same,MCV,"45 mg/kg, 3 h, dose level Low",61.9 fL
same,Mono,"45 mg/kg, 3 h, dose level Low",2.2%
same,Neu,"45 mg/kg, 3 h, dose level Low",17%
same,PT,"45 mg/kg, 3 h, dose level Low",12.1 s
same,Plat,"45 mg/kg, 3 h, dose level Low",127.9 x10_4/uL
same,RBC,"45 mg/kg, 3 h, dose level Low",594 x10_4/ul
same,Ret,"45 mg/kg, 3 h, dose level Low",7.8%
same,WBC,"45 mg/kg, 3 h, dose level Low",55.8 x10_2/uL
same,KIDNEY_L,"45 mg/kg, 3 h, dose level Low",0.9 g
same,KIDNEY_R,"45 mg/kg, 3 h, dose level Low",0.9 g
same,KIDNEY_TOTAL,"45 mg/kg, 3 h, dose level Low",1.8 g
same,LIVER,"45 mg/kg, 3 h, dose level Low",10.3 g
same,ALP,"45 mg/kg, 3 h, dose level Low",910.4 IU/L
same,ALT,"45 mg/kg, 3 h, dose level Low",31.6 IU/L
same,AST,"45 mg/kg, 3 h, dose level Low",66.4 IU/L
same,BUN,"45 mg/kg, 3 h, dose level Low",10.2 mg/dL
same,CRE,"45 mg/kg, 3 h, dose level Low",0.4 mg/dL
same,Ca,"45 mg/kg, 3 h, dose level Low",10.9 mg/dL
same,Cl,"45 mg/kg, 3 h, dose level Low",105.6 meq/L
same,DBIL,"45 mg/kg, 3 h, dose level Low",0.066 mg/dL
same,GLC,"45 mg/kg, 3 h, dose level Low",244.4 mg/dL
same,IP,"45 mg/kg, 3 h, dose level Low",10.2 mg/dL
same,K,"45 mg/kg, 3 h, dose level Low",3.8 meq/L
same,LDH,"45 mg/kg, 3 h, dose level Low",210 IU/L
same,Na,"45 mg/kg, 3 h, dose level Low",144.8 meq/L
same,PL,"45 mg/kg, 3 h, dose level Low",151 mg/dL
same,RALB,"45 mg/kg, 3 h, dose level Low",3.5 g/dL
same,TBIL,"45 mg/kg, 3 h, dose level Low",0.1 mg/dL
same,TC,"45 mg/kg, 3 h, dose level Low",77.8 mg/dL
same,TG,"45 mg/kg, 3 h, dose level Low",77 mg/dL
same,TP,"45 mg/kg, 3 h, dose level Low",5.4 g/dL
same,gamma-GTP,"45 mg/kg, 3 h, dose level Low",1 IU/L
same,TERMINAL_BW,"45 mg/kg, 6 h, dose level Low",214.5 g
same,Bas,"45 mg/kg, 6 h, dose level Low",0.2%
same,Eos,"45 mg/kg, 6 h, dose level Low",1%
same,Fbg,"45 mg/kg, 6 h, dose level Low",221.8 mg/dL
same,Hb,"45 mg/kg, 6 h, dose level Low",12.5 g/dL
same,Ht,"45 mg/kg, 6 h, dose level Low",36.9%
same,Lym,"45 mg/kg, 6 h, dose level Low",69.4%
same,MCH,"45 mg/kg, 6 h, dose level Low",21 pg
same,MCHC,"45 mg/kg, 6 h, dose level Low",34%
same,MCV,"45 mg/kg, 6 h, dose level Low",62 fL
same,Mono,"45 mg/kg, 6 h, dose level Low",2.2%
same,Neu,"45 mg/kg, 6 h, dose level Low",26%
same,PT,"45 mg/kg, 6 h, dose level Low",12 s
same,Plat,"45 mg/kg, 6 h, dose level Low",129.9 x10_4/uL
same,RBC,"45 mg/kg, 6 h, dose level Low",596.2 x10_4/ul
same,Ret,"45 mg/kg, 6 h, dose level Low",8.2%
same,WBC,"45 mg/kg, 6 h, dose level Low",48 x10_2/uL
same,KIDNEY_L,"45 mg/kg, 6 h, dose level Low",1 g
same,KIDNEY_R,"45 mg/kg, 6 h, dose level Low",0.9 g
same,KIDNEY_TOTAL,"45 mg/kg, 6 h, dose level Low",1.9 g
same,LIVER,"45 mg/kg, 6 h, dose level Low",9.4 g
same,ALP,"45 mg/kg, 6 h, dose level Low",861 IU/L
same,ALT,"45 mg/kg, 6 h, dose level Low",29.6 IU/L
same,AST,"45 mg/kg, 6 h, dose level Low",68.4 IU/L
same,BUN,"45 mg/kg, 6 h, dose level Low",8.6 mg/dL
same,CRE,"45 mg/kg, 6 h, dose level Low",0.4 mg/dL
same,Ca,"45 mg/kg, 6 h, dose level Low",10.5 mg/dL
same,Cl,"45 mg/kg, 6 h, dose level Low",106.4 meq/L
same,DBIL,"45 mg/kg, 6 h, dose level Low",0.07 mg/dL
same,GLC,"45 mg/kg, 6 h, dose level Low",249.6 mg/dL
same,IP,"45 mg/kg, 6 h, dose level Low",10.8 mg/dL
same,K,"45 mg/kg, 6 h, dose level Low",3.6 meq/L
same,LDH,"45 mg/kg, 6 h, dose level Low",219.6 IU/L
same,Na,"45 mg/kg, 6 h, dose level Low",144.8 meq/L
same,PL,"45 mg/kg, 6 h, dose level Low",138.2 mg/dL
same,RALB,"45 mg/kg, 6 h, dose level Low",3.4 g/dL
same,TBIL,"45 mg/kg, 6 h, dose level Low",0.1 mg/dL
same,TC,"45 mg/kg, 6 h, dose level Low",79.2 mg/dL
same,TG,"45 mg/kg, 6 h, dose level Low",19.2 mg/dL
same,TP,"45 mg/kg, 6 h, dose level Low",5.4 g/dL
same,gamma-GTP,"45 mg/kg, 6 h, dose level Low",1 IU/L
